PubChem BioAssay (NCI)
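Compound exposure: 48 hours, 5 concentrations, 96-well plates. TGI marks complete inhibition of growth.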

Key:
Assay in all cases: NCI-60 cell line screen, 48 h
[1] = system: NCI-H23 lung
[2] = system: K-562 leukemia
[3] = system: KM12 colon
[4] = system: CCRF-CEM leukemia
[5] = system: SF-295 CNS
[6] = system: UO-31 renal
[7] = system: HCC-2998 colon
[8] = system: KM20L2 colon
[9] = system: UACC-257 melanoma
[10] = system: 786-0 renal
[11] = system: HOP-92 NSCLC
[12] = system: NCI-H522 lung
[13] = system: UACC-62 melanoma
[14] = system: SNB-78 CNS
[15] = system: EKVX NSCLC
[16] = system: HOP-18 NSCLC
[17] = system: SK-MEL-5 melanoma
[18] = system: A549 NSCLC
[19] = system: OVCAR-3 ovarian
[20] = system: COLO 205 colon
[21] = system: DMS 114 small cell lung
[22] = system: DLD-1 colon
[23] = system: NCI-H226 lung
[24] = system: HL-60(TB) leukemia
[25] = system: SF-539 CNS
[26] = system: TK-10 renal
[27] = system: NCI-H460 lung
[28] = system: MALME-3M melanoma
[29] = system: M19-MEL melanoma
[30] = system: HT29 colon
[31] = system: OVCAR-8 ovarian
[32] = system: HOP-62 NSCLC
[33] = system: M14 melanoma
[34] = system: SNB-19 CNS
[35] = system: SW-620 colon
[36] = system: RXF 393 renal
[37] = system: XF 498 CNS
[38] = system: IGROV1 ovarian
[39] = system: HCT-116 colon
[40] = system: SR leukemia
[41] = system: HCT-15 colon
[42] = system: MOLT-4 leukemia
[43] = system: RXF-631 renal
[44] = system: RPMI-8226 leukemia
[45] = system: LOX IMVI melanoma
[46] = system: SNB-75 CNS
[47] = system: DMS 273 small cell lung
[48] = system: OVCAR-5 ovarian
[49] = system: SF-268 CNS
[50] = system: ACHN renal
[51] = system: SN12C renal
[52] = system: LXFL 529 NSCLC
[53] = system: SK-MEL-28 melanoma
[54] = system: SK-MEL-2 melanoma
[55] = system: SK-OV-3 ovarian
[56] = system: U251 CNS
[57] = system: OVCAR-4 ovarian
[58] = system: CAKI-1 renal
[59] = system: A498 renal

COc1cc2c3c(c1OC)-c1ccccc1C(C(O)c1ccccc1)C3N(C)CC2 (centres undefined)
TGI [1]: > 100 µM
TGI [2]: 76.4 µM
TGI [3]: 72.4 µM
TGI [4]: > 100 µM
TGI [5]: > 100 µM
TGI [6]: 68.3 µM
TGI [7]: 33.7 µM
TGI [8]: 48.8 µM
TGI [9]: 40.6 µM
TGI [10]: > 100 µM
TGI [11]: > 100 µM
TGI [12]: 35.9 µM
TGI [13]: > 100 µM
TGI [14]: > 100 µM
TGI [15]: > 100 µM
TGI [16]: > 100 µM
TGI [17]: 28 µM
TGI [18]: > 100 µM
TGI [19]: > 100 µM
TGI [20]: 29.6 µM
TGI [21]: 43.9 µM
TGI [22]: 66.1 µM
TGI [23]: 72.8 µM
TGI [24]: 43.6 µM
TGI [25]: 42.3 µM
TGI [26]: > 100 µM
TGI [27]: 90 µM
TGI [28]: 35 µM
TGI [29]: > 100 µM
TGI [30]: 72 µM
TGI [31]: > 100 µM
TGI [32]: 71.6 µM
TGI [33]: 35.6 µM
TGI [34]: > 100 µM
TGI [35]: > 100 µM
TGI [36]: 29.1 µM
TGI [37]: 52.3 µM
TGI [38]: 80.6 µM
TGI [39]: 39.2 µM
TGI [40]: 47 µM
TGI [41]: 76.9 µM
TGI [42]: 89 µM
TGI [43]: 65.8 µM
TGI [44]: 82.7 µM
TGI [45]: > 100 µM
TGI [46]: > 100 µM
TGI [47]: 64.6 µM
TGI [48]: > 100 µM
TGI [49]: > 100 µM
TGI [50]: > 100 µM
TGI [51]: 99.2 µM
TGI [52]: > 100 µM
TGI [53]: 41.6 µM
TGI [54]: 88.2 µM
TGI [55]: > 100 µM
TGI [56]: > 100 µM

Cc1cccc(-c2cc(=O)c3cc(C)c(C)c(C(=O)O)c3o2)c1
TGI [1]: > 100 µM
TGI [2]: > 100 µM
TGI [3]: > 100 µM
TGI [4]: > 100 µM
TGI [5]: > 100 µM
TGI [6]: > 100 µM
TGI [57]: > 100 µM
TGI [7]: > 100 µM
TGI [8]: > 100 µM
TGI [9]: > 100 µM
TGI [10]: > 100 µM
TGI [11]: > 100 µM
TGI [12]: > 100 µM
TGI [13]: > 100 µM
TGI [14]: > 100 µM
TGI [15]: > 100 µM
TGI [16]: > 100 µM
TGI [17]: > 100 µM
TGI [18]: > 100 µM
TGI [19]: > 100 µM
TGI [20]: > 100 µM
TGI [21]: > 100 µM
TGI [22]: > 100 µM
TGI [23]: > 100 µM
TGI [24]: > 100 µM
TGI [25]: > 100 µM
TGI [26]: > 100 µM
TGI [27]: > 100 µM
TGI [28]: > 100 µM
TGI [29]: > 100 µM
TGI [30]: > 100 µM
TGI [31]: > 100 µM
TGI [32]: > 100 µM
TGI [33]: > 100 µM
TGI [34]: > 100 µM
TGI [35]: > 100 µM
TGI [37]: > 100 µM
TGI [38]: > 100 µM
TGI [39]: > 100 µM
TGI [40]: > 100 µM
TGI [41]: > 100 µM
TGI [42]: > 100 µM
TGI [43]: > 100 µM
TGI [44]: > 100 µM
TGI [45]: > 100 µM
TGI [46]: > 100 µM
TGI [47]: > 100 µM
TGI [48]: > 100 µM
TGI [50]: > 100 µM
TGI [51]: > 100 µM
TGI [52]: > 100 µM
TGI [58]: > 100 µM
TGI [53]: > 100 µM
TGI [54]: > 100 µM
TGI [55]: > 100 µM
TGI [56]: > 100 µM

COc1cc(Nc2cnc3ccc(N)cc3n2)cc(OC)c1OC
TGI [1]: > 100 µM
TGI [2]: > 56.6 µM
TGI [3]: > 100 µM
TGI [4]: > 56.6 µM
TGI [5]: > 100 µM
TGI [6]: > 100 µM
TGI [57]: > 100 µM
TGI [7]: > 100 µM
TGI [8]: > 100 µM
TGI [9]: > 100 µM
TGI [10]: > 100 µM
TGI [11]: > 100 µM
TGI [12]: > 100 µM
TGI [13]: > 100 µM
TGI [14]: > 100 µM
TGI [15]: > 100 µM
TGI [16]: > 100 µM
TGI [17]: > 100 µM
TGI [18]: > 100 µM
TGI [19]: > 86.6 µM
TGI [20]: > 100 µM
TGI [21]: > 100 µM
TGI [22]: > 33.6 µM
TGI [23]: > 100 µM
TGI [24]: > 52.1 µM
TGI [26]: > 100 µM
TGI [27]: > 100 µM
TGI [28]: > 100 µM
TGI [29]: > 100 µM
TGI [30]: > 100 µM
TGI [31]: > 100 µM
TGI [32]: 71.1 µM
TGI [33]: > 100 µM
TGI [34]: > 100 µM
TGI [35]: > 100 µM
TGI [36]: 98.5 µM
TGI [37]: > 100 µM
TGI [38]: > 100 µM
TGI [39]: > 100 µM
TGI [41]: > 100 µM
TGI [42]: > 100 µM
TGI [43]: > 100 µM
TGI [44]: 42.2 µM
TGI [45]: > 82.8 µM
TGI [46]: > 100 µM
TGI [47]: > 100 µM
TGI [48]: > 100 µM
TGI [49]: > 100 µM
TGI [50]: > 100 µM
TGI [51]: > 100 µM
TGI [52]: > 100 µM
TGI [58]: > 100 µM
TGI [59]: > 100 µM
TGI [53]: > 100 µM
TGI [54]: > 100 µM
TGI [55]: > 100 µM
TGI [56]: > 100 µM
